According to patent US20160000849A1, “COMPOSITION FOR REMEDYING OR TREATING RHEUMATOID ARTHRITIS AND OSTEOARTHRITIS” (HANPOONG PHARM & FOODS CO., LTD., priority 2013, published 2016):

Tested on: normal 293T cells, rat chondrocytes and human chondrocytes (HTB-94)
Experimental: The stabilities of glucosamine-HCl, glucosamine-sulfate, celecoxib and HPL-1 were analyzed by an MTT assay using normal 293T cells, rat chondrocytes and human chondrocytes (HTB-94).

SMILES | concentration at which cytotoxicity was observed (human, rat) [ng/mL] | cytotoxicity
Cc1ccc(-c2cc(C(F)(F)F)nn2-c2ccc(S(N)(=O)=O)cc2)cc1 [celecoxib] | ≥ 10000 | –
Cl.N[C@H]1C(O)O[C@H](CO)[C@@H](O)[C@@H]1O (stereo partly drawn) [glucosamine-HCl] | – | no cytotoxicity was observed
N[C@H]1C(O)O[C@H](CO)[C@@H](O)[C@@H]1O.O=S(=O)(O)O (stereo partly drawn) [glucosamine-sulfate] | – | no cytotoxicity was observed
